“And” between values parts separate entries of the source, which are not always exact repeats. Equal values may be shown once.
Tests used:
HUVECs = experiment: Endothelial cell proliferation (CellTiter 96 AQueous One); type: cell-based, human; conditions: for change of VEGF-induced proliferation: delphinidin 10 μg/ml + VEGF 10 ng/ml; for change of rate of basal proliferation: delphinidin 10 μg/ml, 1% human serum
Procedure: HUVECs (12,000 cells per well) were seeded on 24-multiwell plates, or in the case of VEGFR2 studies HUVECs (10000 cells per well) were seeded on 96-multiwell plates, in high serum culture medium and allowed to attach for 4–5 h. The 20% serum medium was then replaced by 1% HS medium. After 24 h incubation, medium was removed and replaced with 500 μl /well or 280 μl/well (for VEGFR2 studies) of 1% HS medium containing tested substances. Cells were pre-treated with or without a MEK1/2 MAP kinase inhibitor (U-0126, 10 μM) or a PI3 kinase inhibitor (LY-294002, 10 μM), then treated with or without 10 ng/ml of VEGF, in presence or in absence of 10 μg/ml delphinidin. Cells were allowed to proliferate for 3 days and HUVEC proliferation was determined at 24 h, 48 h, and 72 h by a colorimetric assay using the ‘CellTiter 96 AQeous One Solution Cell Proliferation Assay’ from Promega.
Cells were pre-treated with or without a VEGFR2 specific inhibitor (Ki8751, 10 nM), then treated with or without 10 ng /ml in presence or absence of 10 μg/ml delphinidin. Cells were allowed to proliferate for 2 days and HUVECs proliferation was determined at 24 h and 48 h by a colorimetric assay using the ‘CellTiter 96 AQeous One Solution Cell proliferation Assay’ from Promega.

B16-F10 melanoma cells = experiment: Melanoma cell proliferation (CyQUANT); type: cell-based, mouse; conditions: 24, 48 and 72 h
Procedure: B16-F10 (5,000 cells per well) were seeded on 96-multiwell plates in completed medium and allowed to attach overnight. […] Proliferation was determined at 24 h, 48 h and 72 h by a fluorimetric assay using the CyQUANT Cell Proliferation Assay Kit (Molecular Probes, Eugene, OR). After growth medium removal, dye-binding solution was added into each microplate well and cells were incubated at 37°C for 45 minutes. The fluorescence levels were read on a fluorescent microplate reader (Synergy HT, Biotek, Winooski, VT) with filters for 485 nm excitation and 530 nm emission.

VEGFR2 [1] = experiment: VEGFR2 expression and phosphorylation in B16-F10 cells (Western blot); type: cell-based, mouse
Procedure: (§1) HUVECs and B16-F10 cells were treated with delphinidin (10 μg/ml) for 3 h and then incubated without or with VEGF (10 ng/ml) for 30 min for VEGFR2 phosphorylation or 24 h for VEGFR2 expression. Then, the cells were […], washed twice with PBS and trypsinized. The cells were lysed with RIPA buffer freshly in presence of protease inhibitor. Cells were allowed to lyse for 45 min on ice and centrifuged at 15000 g for 15 min at 4°C. The supernatant was […], and protein concentrations in the supernatant were determined by protein assay.
(§2) The proteins (30 μg) were separated on 10% sodium dodecyl sulfate-polyacrylamide gel electrophoresis (SDS-PAGE) and transferred on the nitrocellulose membranes. The membranes were incubated with anti-VEGFR2 or anti-pVEGFR2. The anti-β-actin (Sigma-Aldrich) was used to visualize protein gel loading. The membranes were then incubated with appropriate HRP-conjugated secondary antibody. The protein-antibody complexes were detected by chemiluminescence using the Western Blotting Luminol reagent kit (Santa Cruz Biotechnology®).

VEGFR2 [2] = experiment: VEGFR2 expression and phosphorylation in HUVECs (Western blot); type: cell-based, human
Procedure: as §1, §2

CREB = CREB phosphorylation in HUVECs (Western blot); type: cell-based, human; conditions: 30 min
Procedure: (§3) HUVECs (9,000 cells per dish of 3.5 cm diameter) were seeded on petri dishes in high serum culture medium and allowed to attach for 4–5 h. The 20% serum medium was then replaced by 1% HS medium. […] Appropriate quantities of extracted proteins were resolved in a SDS-10% polyacrylamide gel and electro transferred onto PVDF membranes, as described previously. […] Immobilized antigens were detected by chemiluminescence using HRP-conjugates as secondary antibodies (1/60,000), an ECL assay kit and autoradiography films. Autoradiography signals were captured on a GeneGenius Bio Imaging System (Syngene) using the GeneSnap software and analyzed using the GeneTools software. […] Immobilized antigens were detected as described above.

[3] = Mouse weight during xenograft experiment; type: in vivo; conditions: 10 mg/kg i.p. once a week for 3 weeks; over 30 days; vs non-treated mice
Procedure: (§4) Two groups of 7 male C57BL/6N mice were used at 6 weeks old for tumor induction. The experimental protocol is illustrated on in Fig 1A. Before any treatments, mouse weights were registered on day 1 (D1). On the following day (D2), all mice were subcutaneously injected on the ventral side near each hindleg with B16-F10 melanoma cells (25x10^4 cells in 100 μl of 0.9% NaCl). The seventh day after tumor cell inoculation (D9), mice were treated by i.p. injection (100 μl/10 g mice) with either drug solvent (1% ethanol) or 10 mg delphinidin/kg. Delphinidin as well as solvent injections were repeated twice at 7-day intervals (D16 and D23). Then, seven days later (D30) after pentobarbital anesthesia, mice were sacrificed by cervical dislocation and tumors were dissected and weighted.

p38 MAP kinase = p38 MAP kinase activation in HUVECs (Western blot); type: cell-based, human; conditions: delphinidin 10 μg/ml; 30 min
Procedure: as §3

PDE4 = experiment: Purified PDE radio-enzymatic assay, PDE4; type: biochemical, bovine; conditions: substrate 1 μM cAMP; preliminarily reported in ref 26
Procedure: (§5) PDE1, PDE3, PDE4 and PDE5 were isolated by anion-exchange chromatography from bovine aortic smooth muscle cytosolic fraction as previously described. PDE2 was isolated from human platelets. Purified PDEs were stored as aliquots at -80°C until use. PDE activity was determined by a radio-enzymatic assay as described previously. The concentration of delphinidin that produced 50% inhibition (IC50) of substrate hydrolysis (determined at 1μM cAMP or cGMP) was calculated by non-linear regression analysis (GraphPad Prism, San Diego, CA) of concentration-response curves performed with 1–300 μM of delphinidin and included 6 different concentrations of delphinidin.

PDE5 = molecular target: T1, PDE5 (Bos taurus, UniProt Q28156); experiment: Purified PDE radio-enzymatic assay, PDE5; type: biochemical, bovine; conditions: substrate 1 μM cGMP; preliminarily reported in ref 26
T1 construct: isolated by anion-exchange chromatography from bovine aortic smooth muscle cytosolic fraction; from tissue; host or cells: bovine aortic smooth muscle, cytosolic fraction
Procedure: as §5

PDE1 = experiment: Purified PDE radio-enzymatic assay, PDE1; type: biochemical, bovine; conditions: substrate 1 μM cGMP, preliminarily reported in ref 26
Procedure: as §5

[4] = test system: B16-F10 melanoma cell xenograft; experiment: Tumor growth induced by B16-F10 melanoma cell xenograft in mice; type: in vivo, mouse; conditions: 10 mg/kg i.p. once a week for 3 weeks; 30th day; vs vehicle-treated mice
Procedure: as §4

human NSCLC cells = test system: human NSCLC cells; parameters: method as in PMID 24124611; conditions: athymic nude mice subcutaneously implanted with human NSCLC cells; vs control mice; cited from earlier work
PDE2 = molecular target: T2, PDE2 (Homo sapiens, UniProt O00408); experiment: Purified PDE radio-enzymatic assay, PDE2; type: biochemical; conditions: substrate 1 μM cAMP, preliminarily reported in ref 26
T2 construct: PDE2 was isolated from human platelets; from tissue; host or cells: human platelets
T2 sequence (O00408 whole entry): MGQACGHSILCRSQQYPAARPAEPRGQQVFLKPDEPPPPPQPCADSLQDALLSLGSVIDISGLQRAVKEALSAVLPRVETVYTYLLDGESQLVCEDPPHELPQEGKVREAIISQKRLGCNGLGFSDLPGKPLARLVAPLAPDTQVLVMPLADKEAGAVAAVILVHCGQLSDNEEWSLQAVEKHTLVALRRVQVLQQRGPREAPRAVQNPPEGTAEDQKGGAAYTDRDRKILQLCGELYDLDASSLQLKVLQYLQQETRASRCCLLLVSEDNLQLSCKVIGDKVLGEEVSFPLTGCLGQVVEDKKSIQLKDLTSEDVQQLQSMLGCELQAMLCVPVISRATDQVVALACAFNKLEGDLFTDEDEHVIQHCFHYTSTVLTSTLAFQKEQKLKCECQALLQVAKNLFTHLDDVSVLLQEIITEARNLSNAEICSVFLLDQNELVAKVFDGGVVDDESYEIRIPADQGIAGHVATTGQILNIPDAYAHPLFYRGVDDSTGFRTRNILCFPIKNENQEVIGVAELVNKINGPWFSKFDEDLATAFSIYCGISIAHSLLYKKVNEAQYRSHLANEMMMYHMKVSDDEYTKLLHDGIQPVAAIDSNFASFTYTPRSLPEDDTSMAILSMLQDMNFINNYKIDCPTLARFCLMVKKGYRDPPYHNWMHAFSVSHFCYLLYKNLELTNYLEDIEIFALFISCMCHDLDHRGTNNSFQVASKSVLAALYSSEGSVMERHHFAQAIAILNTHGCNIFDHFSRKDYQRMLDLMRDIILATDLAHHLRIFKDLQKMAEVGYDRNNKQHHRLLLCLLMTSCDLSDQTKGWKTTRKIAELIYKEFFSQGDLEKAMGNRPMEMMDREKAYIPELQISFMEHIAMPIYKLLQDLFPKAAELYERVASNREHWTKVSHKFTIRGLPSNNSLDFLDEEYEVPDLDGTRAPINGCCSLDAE
Procedure: as §5

ATF1 = ATF1 phosphorylation in HUVECs (Western blot); type: cell-based, human; conditions: delphinidin 10 μg/ml, 30 min
Procedure: as §3

## COc1cc2nccc(Oc3ccc(NC(=O)Nc4ccc(F)cc4F)c(F)c3)c2cc1OC [Ki8751, reference compound]
HUVECs; Ki8751 10 nM + VEGF, 24 and 48 h
  ability of VEGF to increase endothelial cell proliferation: completely abolished

## VEGF
B16-F10 melanoma cells; VEGF 10 ng/ml
  B16-F10 melanoma cell proliferation: not able increase
VEGFR2 [1]; VEGF 10 ng/ml
  VEGFR2 expression: did not modify
VEGFR2 [1]; VEGF 10 ng/ml 30 min
  VEGFR2 phosphorylation: increased
VEGFR2 [2]; VEGF 10 ng/ml 30 min
  VEGFR2 phosphorylation: increased
VEGFR2 [2]; VEGF 10 ng/ml 24 h
  VEGFR2 expression: increased
CREB; VEGF 10 ng/ml
  increase of CREB phosphorylation: +484%

## N#CC(=C(N)Sc1ccccc1N)C(C#N)=C(N)Sc1ccccc1N [U-0126, 1,4-diamino-2,3-dicyano-1,4-bis(2-aminophenylthio)-butadiene, reference compound]
HUVECs; U-0126 10 μM + VEGF 10 ng/ml, 72 h, n.s. vs control
  proliferation rate (% of control): 131%
HUVECs; U-0126 10 μM + delphinidin 10 μg/ml
  effect on the inhibitory effect of delphinidin on basal proliferation: reversed to some extent closer to basal level

## O=c1cc(N2CCOCC2)oc2c(-c3ccccc3)cccc12 [LY-294002, 2-(4-Morpholinyl)-8-phenyl-4H-1-benzopyran-4-one, reference compound]
HUVECs; LY-294002 10 μM + delphinidin 10 μg/ml
  effect on the inhibitory effect of delphinidin on basal proliferation: completely blunted
HUVECs; LY-294002 10 μM, 72 h
  increase of basal proliferation: not at 72 h

## Oc1cc(O)c2cc(O)c(-c3cc(O)c(O)c(O)c3)[o+]c2c1 [delphinidin, Delphinidin]
[3]
  mouse weight as a percent of the starting weight: unchanged
p38 MAP kinase
  basal p38 MAP kinase activation: did not affect
PDE4
  IC50: 109 ± 12 µM
  IC50 PDE4: 37 ± 4 µg/mL
PDE5
  IC50: 49.5 µM and 44 µM
B16-F10 melanoma cells; delphinidin 10 μg/ml
  B16-F10 proliferation: did not inhibit
PDE1; +CaM/Ca
  IC50: 15 ± 3 µM
  IC50 PDE1: 5 ± 1 µg/mL
PDE1; no regulator
  IC50: 33 ± 6 µM
  IC50 PDE1: 11 ± 2 µg/mL
[4]
  decrease of tumor weight: 83%
VEGFR2 [1]; delphinidin 10 μg/ml 3 h, then VEGF 30 min
  VEGF-dependent VEGFR2 phosphorylation: inhibited
VEGFR2 [2]; delphinidin 10 μg/ml 3 h, then VEGF 10 ng/ml 30 min
  ability of VEGF in increasing VEGFR2 phosphorylation: completely prevented
VEGFR2 [2]; delphinidin 10 μg/ml 3 h, then VEGF 10 ng/ml 24 h
  ability of VEGF in increasing VEGFR2 expression: completely prevented
VEGFR2 [2]; delphinidin 10 μg/ml alone
  VEGFR2 expression: no effect
  VEGFR2 phosphorylation: no effect
HUVECs; 24 h
  change of VEGF-induced proliferation: -56%
  change of rate of basal proliferation: -52%
HUVECs; 48 h
  change of VEGF-induced proliferation: -85%
  change of rate of basal proliferation: -66%
HUVECs; 72 h
  change of VEGF-induced proliferation: -130%
  change of rate of basal proliferation: -70%
Human NSCLC cells
  tumor growth: significant inhibition
PDE2; +5μM cGMP
  IC50: 19.8 µM and 18 µM
PDE2; no regulator
  IC50: 115 µM and 103 µM
ATF1; after stimulation by VEGF 10 ng/ml
  phosphorylation of ATF1: abolished
ATF1; control conditions
  phosphorylation of ATF1: abolished
CREB; delphinidin 10 μg/ml + VEGF 10 ng/ml
  increase of CREB phosphorylation induced by VEGF: completely prevented
CREB; delphinidin 10 μg/ml alone
  CREB phosphorylation: no significant effect

Reference: paper PMC4687871, “Delphinidin Inhibits Tumor Growth by Acting on VEGF Signalling in Endothelial Cells” (PLoS ONE, 2015)
